Residues, ends and D or L forms follow the SMILES beside them. *: point of attachment. 5FAM = O=C1OC2(c3ccc(O)cc3Oc3cc(O)ccc32)c2ccc(C(=O)*)cc21; Ahx = NCCCCCC(=O)O

One may read the IC50 as the concentration that gives 50% inhibition. Low readings indicate higher potency, high ones lower potency.

Test [1] concerns the target T1, SHANK1 PDZ domain (656–762) (Homo sapiens, UniProt Q9Y566).
T1 construct: Human SHANK1 PDZ domain (656–762) was prepared as described previously; GST (N, cleaved yes); made in house; host or cells: E. coli BL21 Gold (pGEX-6P-2)
T1 sequence (Q9Y566 656-762): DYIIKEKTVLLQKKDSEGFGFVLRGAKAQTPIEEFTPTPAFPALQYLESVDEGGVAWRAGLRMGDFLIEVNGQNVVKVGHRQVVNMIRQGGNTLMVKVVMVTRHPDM
Nature of the test: Fluorescence anisotropy direct titration. Conditions: 50 mM NH4OAc, pH 6.5. Format: binding. As to the method: Direct titration assays were performed in 384-well plates (Greiner Bio-one). Two hundred micromolars of SHANK1 protein was dialyzed into the assay buffer before use. Twenty microlitres of the assay buffer (50 mM ammonium-acetate, pH 6.5) was first added to each well. Twenty microlitres of the target protein sample was then added to the first column, followed by a two-fold serial dilution over 24 points. Twenty microlitres of 50 nM tracer peptide or 20 µl of the assay buffer was added to the corresponding row wells. The titration was performed in triplicate. […] The P (perpendicular intensity) and S (parallel intensity) channels raw data were obtained. The data processing and formulae are shown in the Supporting Information 2.6.
(§1) . Reversed Phase C18 column, mobile phase A (0.1% TFA in water), mobile phase B
2.6 Equations for data calculation in fluorescent anisotropy direct titration The intensity and anisotropy were calculated by using Equations 1 and 2. The data was fitted to a sigmoidal logistic model to obtain r min and rmax, and the L b was further calculated (Equation 3). Finally, the data was fitted to a nonlinear curve model (Equation 4), to obtain the value of KD.
I = total intensity, r = anisotropy, P = perpendicular intensity, S = parallel intensity, G is an instrument gain factor, L b = fraction ligand bound, λ = Ibound/Iunbound = 1, [FL] = concentration of fluorescent ligand, k = K D and x = [added titrant].
2.7 Equations for data calculation in fluorescent anisotropy competition assays The calculated average anisotropy values and their standard deviation were fitted using a sigmoidal logistic model (Equation 5). y = r = anisotropy, xo = mid-point of the curve between the r max and rmin plateau. […]
In general terms: Polarisation of emitted light reports the rotation of a fluorescent probe.

For test [2], the target named is T1, SHANK1 PDZ domain (656–762). Nature of the test: Fluorescence anisotropy competition assay. It counts as binding. Conditions: 50 nM tracer, 1 μM SHANK1, 50 mM NH4OAc, pH 6.5, triplicate. As to the method: FA competition assays were also performed in 50 mM NH4OAc, pH 6.5 buffer in 384-well plates. Twenty microlitres of the assay buffer was first added to wells. Twenty microlitres of 5000 µM competitor peptides was added to the first columns, followed by a twofold serial dilution over 16 points. Three micromolars of SHANK1 protein was dialyzed into the assay buffer before use. Twenty microlitres of the SHANK1 protein was added to each well to give a final protein concentration of 1 μM. Twenty microlitres of 50 nM tracer peptides or 20 µl of the assay buffer was added to corresponding row wells. The titration was performed in triplicate. Plates were read immediately with an excitation and emission wavelength of 480 and 535 nm respectively (dichroic mirror 505 nm), and after an hour or after 24 h on the plate reader with the same parameters as described above. The data processing and formulae are shown in the Supporting Information 2.7.
Time (min) Mobile phase A (%) Mobile phase B (%) Flow (mL/min) […]
as §1
2.6 Equations for data calculation in fluorescent anisotropy direct titration The intensity and anisotropy were calculated by using Equations 1 and 2. The data was fitted to a sigmoidal logistic model to obtain r min and rmax, and the L b was further calculated (Equation 3). […]

Test [3] has the same target. As to the kind of experiment: Isothermal titration calorimetry (ITC). The settings on record: 25 mM Tris, pH 7.5, 150 mM NaCl, 25°C; 500 μM peptide injected into 50 μM protein; one-binding site model.
Experimental: A Microcal ITC200i instrument (Malvern) was employed to carry out the ITC experiments. Prior to use, SHANK1 protein was dialyzed against 20 mM Tris, 150 mM NaCl, pH 7.5 buffer. […] Sixty microlitres of every test peptide was placed in the syringe to titrate against 350 µl of 50 µM Shank1 protein in the cell. The injection volumes were 2 µl each, injection time 6 s, and a 120 s delay between each injection for 20 injections in total. The titration for peptide into buffer was subtracted from the titration for peptide into protein to account for the heat of peptide dilution. Raw data was processed in the software Microcal Origin 8 and fit to a one-binding site model.
The target in another test is T2, FAM-Ahx-EESTSFQGP-CONH2.
T2 chain: {FAM-Ahx}-EESTSFQGP-NH2
Nature of the test: fluorescence anisotropy direct titration.

A further test deals with T3, Ac-EESTSFQGP-CONH2.
T3 chain: Ac-EESTSFQGP-NH2
Nature of the test: fluorescence anisotropy competition (tracer FAM-Ahx-EESTSFQGP-CONH2).

[4] abbreviates: 50 nM labelled peptide as tracer, plates read after 24 hr incubation at room temperature, read-out: KD (FA direct titration, Figure S1).

In the case of `C[C@@H](O)[C@H](NC(=O)[C@H](CO)NC(=O)[C@H](CCC(=O)O)NC(=O)[C@H](CCC(=O)O)NC(=O)CCCCCNC(=O)c1ccc2c(c1)C(=O)OC21c2ccc(O)cc2Oc2cc(O)ccc21)C(=O)N[C@@H](CO)C(=O)N[C@@H](Cc1ccccc1)C(=O)N[C@@H](CCC(N)=O)C(=O)NCC(=O)N1CCC[C@H]1C(N)=O` ({5FAM-Ahx}-EESTSFQGP-NH2), in test [1] (FA direct titration of SHANK1 into 50 nM tracer peptide, 25°C, triplicate, read-out: KD), the Kd was found to be 0.81 ± 0.08 µM.

On to `CC[C@H](C)[C@H](NC(=O)[C@H](CC(C)C)NC(=O)[C@H](CCC(=O)O)NC(=O)[C@@H]1CCCN1C(=O)[C@H](Cc1ccccc1)NC(=O)CCCCCNC(=O)c1ccc2c(c1)C(=O)OC21c2ccc(O)cc2Oc2cc(O)ccc21)C(=O)N[C@@H](CCC(N)=O)C(=O)N[C@@H](CC(=O)O)C(=O)N[C@H](C(=O)N[C@@H](CO)C(=O)N[C@H](C(=O)N[C@@H](CO)C(=O)N[C@@H](Cc1ccccc1)C(=O)N[C@@H](CO)C(=O)N[C@H](C(=O)N[C@H](C(=O)N[C@@H](CCCNC(=N)N)C(N)=O)[C@@H](C)O)[C@@H](C)O)[C@@H](C)O)[C@@H](C)O` [FAM-Ahx-ARAP31414-1429-CONH2] ({5FAM-Ahx}-FPELIQDTSTSFSTTR-NH2), for which the Kd in test [1] (setting [4]) turned out to be 12.2 ± 8.3 µM. On the same count and under the same terms, the same measure for `CC(C)[C@H](NC(=O)CNC(=O)[C@H](CCC(N)=O)NC(=O)[C@H](Cc1ccccc1)NC(=O)[C@H](CO)NC(=O)[C@@H](NC(=O)[C@H](CO)NC(=O)[C@H](CCC(=O)O)NC(=O)CCCCCNC(=O)c1ccc2c(c1)C(=O)OC21c2ccc(O)cc2Oc2cc(O)ccc21)[C@@H](C)O)C(=O)N[C@@H](CCCCN)C(=O)N[C@@H](CO)C(=O)NCC(=O)N1CCC[C@H]1C(=O)N[C@H](C(=O)N[C@@H](CO)C(=O)N[C@H](C(=O)N[C@@H](C)C(N)=O)C(C)C)C(C)C` [FAM-Ahx-ELFN1579-594-CONH2] ({5FAM-Ahx}-ESTSFQGVKSGPVSVA-NH2): 3.6 ± 0.7 µM.

For Ac-EESTSFQGP-NH2, the IC50 came to 3.9 ± 0.1 µM in test [2] (competition against SHANK1/FAM-Ahx-EESTSFQGP-CONH2 interaction) and 3.3 ± 0.2 µM in test [2] (competition against SHANK1/FITC-Ahx-EAQTRL-COOH interaction). This molecule also gave a Kd in test [3] of 0.96 µM.

B1: SHANK1 PDZ domain 656-762 (protein)
chain: T1 sequence (Q9Y566 656-762)
Regarding B1, the Kd in the test with FAM-Ahx-EESTSFQGP-CONH2 was found to be 0.81 µM. In the test with Ac-EESTSFQGP-CONH2, this molecule yielded an IC50 of 3.9 µM.
